In patent EP4745137A1 (Gluetacs Therapeutics (Shanghai) Co., Ltd., priority 2023, dated 2025):

Tests used:
Assay type in all cases: cell-based
Conditions in all cases: 24 hours of compound treatment, 50 nM and 500 nM tested (concentration behind the class not stated)
[1] = biological target: T1, CK1α (Homo sapiens, UniProt P48729+Q96SW2); test: Western-blot assay of substrate protein degradation in hPBMCs, CK1α
T1 construct: endogenous in cells; host or cells: hPBMCs (Milecell Biotechnologies)

[2] = biological target: T2, IKZF3 (Homo sapiens, UniProt Q96SW2+Q9UKT9); test: Western-blot assay of substrate protein degradation in hPBMCs, IKZF3
T2 construct: endogenous in cells; host or cells: hPBMCs (Milecell Biotechnologies)

[3] = biological target: T3, GSPT1 (Homo sapiens, UniProt P15170+Q96SW2); test: Western-blot assay of substrate protein degradation in hPBMCs, GSPT1
T3 construct: endogenous in cells; host or cells: hPBMCs (Milecell Biotechnologies)

[4] = biological target: T4, IKZF2 (Homo sapiens, UniProt Q96SW2+Q9UKS7); test: Western-blot assay of substrate protein degradation in hPBMCs, IKZF2
T4 construct: endogenous in cells; host or cells: hPBMCs (Milecell Biotechnologies)

[5] = biological target: T5, IKZF1 (Homo sapiens, UniProt Q13422+Q96SW2); test: Western-blot assay of substrate protein degradation in hPBMCs, IKZF1
T5 construct: endogenous in cells; host or cells: hPBMCs (Milecell Biotechnologies)

[6] = biological target: T6, WEE1 (Homo sapiens, UniProt P30291+Q96SW2); test: Western-blot assay of substrate protein degradation in hPBMCs, WEE1
T6 construct: endogenous in cells; host or cells: hPBMCs (Milecell Biotechnologies)
T6 sequence (P30291 whole entry): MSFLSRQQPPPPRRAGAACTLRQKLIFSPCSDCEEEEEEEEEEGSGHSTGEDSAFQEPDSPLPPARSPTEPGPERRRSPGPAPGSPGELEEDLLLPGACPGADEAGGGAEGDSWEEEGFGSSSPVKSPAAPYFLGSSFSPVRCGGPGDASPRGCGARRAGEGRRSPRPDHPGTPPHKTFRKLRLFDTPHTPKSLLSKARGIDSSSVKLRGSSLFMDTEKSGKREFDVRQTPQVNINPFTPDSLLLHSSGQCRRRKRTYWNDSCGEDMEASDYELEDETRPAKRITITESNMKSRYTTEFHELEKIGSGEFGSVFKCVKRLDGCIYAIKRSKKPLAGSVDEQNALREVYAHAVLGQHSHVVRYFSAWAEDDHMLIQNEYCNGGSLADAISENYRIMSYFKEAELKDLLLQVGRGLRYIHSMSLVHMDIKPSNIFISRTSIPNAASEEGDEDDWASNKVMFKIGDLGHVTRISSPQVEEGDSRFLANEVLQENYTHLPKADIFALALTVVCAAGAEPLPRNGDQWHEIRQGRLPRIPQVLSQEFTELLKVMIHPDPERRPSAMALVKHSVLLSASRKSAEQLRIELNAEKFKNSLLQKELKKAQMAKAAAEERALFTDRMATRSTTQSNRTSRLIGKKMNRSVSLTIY
T6 sequence (Q96SW2 whole entry): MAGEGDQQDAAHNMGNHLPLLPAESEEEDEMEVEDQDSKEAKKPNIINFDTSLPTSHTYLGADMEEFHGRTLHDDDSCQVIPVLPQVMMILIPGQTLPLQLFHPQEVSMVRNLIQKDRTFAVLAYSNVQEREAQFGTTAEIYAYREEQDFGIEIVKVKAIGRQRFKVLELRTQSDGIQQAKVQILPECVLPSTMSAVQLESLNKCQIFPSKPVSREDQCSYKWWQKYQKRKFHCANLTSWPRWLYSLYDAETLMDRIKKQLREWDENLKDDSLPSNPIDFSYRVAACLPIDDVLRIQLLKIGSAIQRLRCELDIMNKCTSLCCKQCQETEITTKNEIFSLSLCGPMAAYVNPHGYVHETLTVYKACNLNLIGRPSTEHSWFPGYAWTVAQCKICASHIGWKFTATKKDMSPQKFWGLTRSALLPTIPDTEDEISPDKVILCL
T6 sequence (Q16531 whole entry partner): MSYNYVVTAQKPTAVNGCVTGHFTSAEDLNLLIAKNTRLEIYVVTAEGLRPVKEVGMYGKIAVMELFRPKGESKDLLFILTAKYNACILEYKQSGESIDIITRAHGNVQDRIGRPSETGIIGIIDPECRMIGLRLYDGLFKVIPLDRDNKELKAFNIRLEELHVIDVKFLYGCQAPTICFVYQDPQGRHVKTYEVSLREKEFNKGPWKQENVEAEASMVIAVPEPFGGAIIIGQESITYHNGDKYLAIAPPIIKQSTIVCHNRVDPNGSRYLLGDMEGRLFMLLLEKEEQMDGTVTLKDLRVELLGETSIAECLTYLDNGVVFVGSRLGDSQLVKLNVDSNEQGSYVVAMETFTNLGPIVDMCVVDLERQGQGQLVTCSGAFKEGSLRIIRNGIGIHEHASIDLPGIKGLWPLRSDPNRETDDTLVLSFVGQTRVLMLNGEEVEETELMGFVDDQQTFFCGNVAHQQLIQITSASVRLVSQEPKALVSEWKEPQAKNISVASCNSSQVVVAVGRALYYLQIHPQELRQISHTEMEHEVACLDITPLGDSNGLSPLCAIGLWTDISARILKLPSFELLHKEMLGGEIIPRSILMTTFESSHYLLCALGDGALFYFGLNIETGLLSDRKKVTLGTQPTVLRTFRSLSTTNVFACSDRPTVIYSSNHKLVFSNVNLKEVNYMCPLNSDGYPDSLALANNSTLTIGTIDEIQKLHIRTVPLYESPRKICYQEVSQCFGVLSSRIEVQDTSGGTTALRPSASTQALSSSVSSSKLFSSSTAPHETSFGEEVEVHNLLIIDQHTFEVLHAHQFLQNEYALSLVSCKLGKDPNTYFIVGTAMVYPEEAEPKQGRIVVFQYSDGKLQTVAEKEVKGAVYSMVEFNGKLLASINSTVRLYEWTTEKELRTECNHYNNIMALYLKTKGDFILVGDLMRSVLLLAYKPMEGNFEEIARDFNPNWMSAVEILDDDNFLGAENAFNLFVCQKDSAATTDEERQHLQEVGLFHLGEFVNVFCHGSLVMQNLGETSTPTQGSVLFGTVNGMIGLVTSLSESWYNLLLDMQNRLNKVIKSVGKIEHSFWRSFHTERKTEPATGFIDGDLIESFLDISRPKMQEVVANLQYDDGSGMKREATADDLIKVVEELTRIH

T2 sequence (Q9UKT9 whole entry): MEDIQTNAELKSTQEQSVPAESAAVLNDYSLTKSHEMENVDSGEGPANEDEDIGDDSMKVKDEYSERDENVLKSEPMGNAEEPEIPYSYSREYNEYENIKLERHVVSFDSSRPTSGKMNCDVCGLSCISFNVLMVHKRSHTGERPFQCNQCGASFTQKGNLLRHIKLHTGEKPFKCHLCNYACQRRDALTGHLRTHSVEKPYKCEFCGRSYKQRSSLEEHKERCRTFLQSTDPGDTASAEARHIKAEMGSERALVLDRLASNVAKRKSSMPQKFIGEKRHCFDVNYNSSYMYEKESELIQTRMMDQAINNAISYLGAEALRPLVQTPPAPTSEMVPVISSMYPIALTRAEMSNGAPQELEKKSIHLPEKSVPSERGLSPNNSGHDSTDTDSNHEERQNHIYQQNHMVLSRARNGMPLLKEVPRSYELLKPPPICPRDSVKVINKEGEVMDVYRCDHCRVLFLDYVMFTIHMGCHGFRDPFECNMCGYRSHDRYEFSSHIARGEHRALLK
T2 sequence (Q96SW2 whole entry): as the sequence (Q96SW2 whole entry) above
T2 sequence (Q16531 whole entry partner): as the sequence (Q16531 whole entry partner) above
T1 sequence (P48729 whole entry): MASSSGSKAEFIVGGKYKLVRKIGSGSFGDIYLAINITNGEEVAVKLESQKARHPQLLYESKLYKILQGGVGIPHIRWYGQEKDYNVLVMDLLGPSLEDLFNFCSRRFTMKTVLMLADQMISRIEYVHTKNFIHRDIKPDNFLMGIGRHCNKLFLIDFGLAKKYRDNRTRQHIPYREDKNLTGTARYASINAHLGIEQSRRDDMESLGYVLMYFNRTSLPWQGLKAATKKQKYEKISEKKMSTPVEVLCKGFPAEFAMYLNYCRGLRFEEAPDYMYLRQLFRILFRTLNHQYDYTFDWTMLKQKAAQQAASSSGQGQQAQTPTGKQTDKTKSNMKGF
T1 sequence (Q96SW2 whole entry): as the sequence (Q96SW2 whole entry) above
T1 sequence (Q16531 whole entry partner): as the sequence (Q16531 whole entry partner) above
T4 sequence (Q9UKS7 whole entry): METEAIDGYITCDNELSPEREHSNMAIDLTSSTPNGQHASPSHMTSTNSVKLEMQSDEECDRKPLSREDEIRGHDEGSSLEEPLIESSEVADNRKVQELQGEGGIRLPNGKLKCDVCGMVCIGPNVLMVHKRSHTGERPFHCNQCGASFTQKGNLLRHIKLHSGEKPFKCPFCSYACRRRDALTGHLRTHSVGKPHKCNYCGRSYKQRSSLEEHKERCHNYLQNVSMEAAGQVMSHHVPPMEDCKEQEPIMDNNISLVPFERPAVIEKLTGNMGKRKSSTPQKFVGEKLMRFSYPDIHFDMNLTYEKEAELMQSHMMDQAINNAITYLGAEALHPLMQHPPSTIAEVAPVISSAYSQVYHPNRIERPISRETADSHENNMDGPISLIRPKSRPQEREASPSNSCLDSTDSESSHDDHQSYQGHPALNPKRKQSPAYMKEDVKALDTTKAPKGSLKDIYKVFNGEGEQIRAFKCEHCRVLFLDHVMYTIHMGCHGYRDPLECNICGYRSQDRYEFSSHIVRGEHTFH
T4 sequence (Q96SW2 whole entry): as the sequence (Q96SW2 whole entry) above
T4 sequence (Q16531 whole entry partner): as the sequence (Q16531 whole entry partner) above
T5 sequence (Q13422 whole entry): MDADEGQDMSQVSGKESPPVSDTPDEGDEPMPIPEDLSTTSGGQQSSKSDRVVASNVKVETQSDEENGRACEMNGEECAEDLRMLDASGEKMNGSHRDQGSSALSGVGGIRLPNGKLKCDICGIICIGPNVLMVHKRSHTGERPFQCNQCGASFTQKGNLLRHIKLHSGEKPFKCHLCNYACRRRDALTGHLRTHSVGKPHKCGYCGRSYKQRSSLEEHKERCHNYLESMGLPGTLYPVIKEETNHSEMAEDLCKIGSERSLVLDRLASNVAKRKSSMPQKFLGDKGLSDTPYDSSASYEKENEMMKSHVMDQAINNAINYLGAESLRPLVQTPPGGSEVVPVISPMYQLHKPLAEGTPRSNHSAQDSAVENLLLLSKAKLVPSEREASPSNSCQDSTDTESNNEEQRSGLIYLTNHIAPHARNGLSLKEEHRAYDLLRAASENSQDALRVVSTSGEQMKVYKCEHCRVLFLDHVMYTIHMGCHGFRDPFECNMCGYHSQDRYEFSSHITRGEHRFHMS
T5 sequence (Q96SW2 whole entry): as the sequence (Q96SW2 whole entry) above
T5 sequence (Q16531 whole entry partner): as the sequence (Q16531 whole entry partner) above

`O=C1CCC(N2C(=O)c3ccc(CN4CCN(c5c(F)cccc5F)CC4)cc3C2=O)C(=O)N1` (stereo not drawn) [GT-06363, 5-((4-(2,6-difluorophenyl)piperazin-1-yl)methyl)-2-(2,6-dioxopiperidin-3-yl)isoindoline-1,3-dione] was tested, and the “CK1a substrate protein remaining %” value [1] was “B (80%< substrate protein remaining %≤ 100%)”, the “IKZF3 substrate protein remaining %” value [2] was “B (80%< substrate protein remaining %≤ 100%)” and the “GSPT1 substrate protein remaining %” value [3] was “A (0% ≤ substrate protein remaining % ≤ 80%)”. For the same compound, the “IKZF2 substrate protein remaining %” value [4] was “B (80%< substrate protein remaining %≤ 100%)”, the “IKZF 1 substrate protein remaining %” value [5] was “A (0% ≤ substrate protein remaining % ≤ 80%)” and the “Weel substrate protein remaining %” value [6] was “B (80%< substrate protein remaining %≤ 100%)”.
With `O=C1CCC(N2C(=O)c3ccc(CN4CCN(c5ccc(F)c(F)c5)CC4)cc3C2=O)C(=O)N1` (stereo not drawn) [GT-06364, 5-((4-(3,4-difluorophenyl)piperazin-1-yl)methyl)-2-(2,6-dioxopiperidin-3-yl)isoindoline-1,3-dione] the “CK1a substrate protein remaining %” value [1] was “B (80%< substrate protein remaining %≤ 100%)”, the “IKZF3 substrate protein remaining %” value [2] was “B (80%< substrate protein remaining %≤ 100%)” and the “GSPT1 substrate protein remaining %” value [3] was “A (0% ≤ substrate protein remaining % ≤ 80%)”. The “IKZF2 substrate protein remaining %” value [4] was “B (80%< substrate protein remaining %≤ 100%)”, the “IKZF 1 substrate protein remaining %” value [5] was “B (80%< substrate protein remaining %≤ 100%)” and the “Weel substrate protein remaining %” value [6] was “B (80%< substrate protein remaining %≤ 100%)”.
With `O=C1CCC(N2C(=O)c3ccc(CN4CCN(c5cc(F)cc(F)c5)CC4)cc3C2=O)C(=O)N1` (stereo not drawn) [GT-06365, 5-((4-(3,5-difluorophenyl)piperazin-1-yl)methyl)-2-(2,6-dioxopiperidin-3-yl)isoindoline-1,3-dione] the “CK1a substrate protein remaining %” value [1] was “B (80%< substrate protein remaining %≤ 100%)”, the “IKZF3 substrate protein remaining %” value [2] was “B (80%< substrate protein remaining %≤ 100%)” and the “GSPT1 substrate protein remaining %” value [3] was “A (0% ≤ substrate protein remaining % ≤ 80%)”. The “IKZF2 substrate protein remaining %” value [4] was “B (80%< substrate protein remaining %≤ 100%)”, the “IKZF 1 substrate protein remaining %” value [5] was “B (80%< substrate protein remaining %≤ 100%)” and the “Weel substrate protein remaining %” value [6] was “B (80%< substrate protein remaining %≤ 100%)”.
For `Cc1ccc(N2CCN(Cc3ccc4c(c3)C(=O)N(C3CCC(=O)NC3=O)C4=O)CC2)c(C)c1` (stereo not drawn) [GT-06366, 5-((4-(2,4-dimethylphenyl)piperazin-1-yl)methyl)-2-(2,6-dioxopiperidin-3-yl)isoindoline-1,3-dione], the “CK1a substrate protein remaining %” value [1] was “B (80%< substrate protein remaining %≤ 100%)”, the “IKZF3 substrate protein remaining %” value [2] was “A (0% ≤ substrate protein remaining % ≤ 80%)” and the “GSPT1 substrate protein remaining %” value [3] was “A (0% ≤ substrate protein remaining % ≤ 80%)”. For the same compound, the “IKZF2 substrate protein remaining %” value [4] was “A (0% ≤ substrate protein remaining % ≤ 80%)”, the “IKZF 1 substrate protein remaining %” value [5] was “B (80%< substrate protein remaining %≤ 100%)” and the “Weel substrate protein remaining %” value [6] was “B (80%< substrate protein remaining %≤ 100%)”.
For `Cc1ccc(Cl)cc1N1CCN(Cc2ccc3c(c2)C(=O)N(C2CCC(=O)NC2=O)C3=O)CC1` (stereo not drawn) [GT-06367, 5-((4-(5-chloro-2-methylphenyl)piperazin-1-yl)methyl)-2-(2,6-dioxopiperidin-3-yl)isoindoline-1,3-dione], the “CK1a substrate protein remaining %” value [1] was “B (80%< substrate protein remaining %≤ 100%)”, the “IKZF3 substrate protein remaining %” value [2] was “A (0% ≤ substrate protein remaining % ≤ 80%)” and the “GSPT1 substrate protein remaining %” value [3] was “A (0% ≤ substrate protein remaining % ≤ 80%)”. For the same compound, the “IKZF2 substrate protein remaining %” value [4] was “A (0% ≤ substrate protein remaining % ≤ 80%)”, the “IKZF 1 substrate protein remaining %” value [5] was “B (80%< substrate protein remaining %≤ 100%)” and the “Weel substrate protein remaining %” value [6] was “A (0% ≤ substrate protein remaining % ≤ 80%)”.
In the case of `O=C1CCC(N2C(=O)c3ccc(CN4CCC(c5ccccc5)CC4)cc3C2=O)C(=O)N1` (stereo not drawn) [GT-06368, 2-(2,6-dioxopiperidin-3-yl)-5-((4-phenylpiperidin-1-yl)methyl)isoindoline-1,3-dione], the “CK1a substrate protein remaining %” value [1] is reported as “A (0% ≤ substrate protein remaining % ≤ 80%)”, the “IKZF3 substrate protein remaining %” value [2] is reported as “A (0% ≤ substrate protein remaining % ≤ 80%)” and the “GSPT1 substrate protein remaining %” value [3] is reported as “A (0% ≤ substrate protein remaining % ≤ 80%)”. The “IKZF2 substrate protein remaining %” value [4] was “A (0% ≤ substrate protein remaining % ≤ 80%)”, the “IKZF 1 substrate protein remaining %” value [5] was “B (80%< substrate protein remaining %≤ 100%)” and the “Weel substrate protein remaining %” value [6] was “A (0% ≤ substrate protein remaining % ≤ 80%)”.
With `O=C1CCC(N2C(=O)c3ccc(CN4CCC(c5cccc(Br)c5)CC4)cc3C2=O)C(=O)N1` (stereo not drawn) [GT-06369, 5-((4-(3-bromophenyl)piperidin-1-yl)methyl)-2-(2,6-dioxopiperidin-3-yl)isoindoline-1,3-dione] the “CK1a substrate protein remaining %” value [1] was “A (0% ≤ substrate protein remaining % ≤ 80%)”, the “IKZF3 substrate protein remaining %” value [2] was “A (0% ≤ substrate protein remaining % ≤ 80%)” and the “GSPT1 substrate protein remaining %” value [3] was “A (0% ≤ substrate protein remaining % ≤ 80%)”. For the same compound, the “IKZF2 substrate protein remaining %” value [4] was “A (0% ≤ substrate protein remaining % ≤ 80%)”, the “IKZF 1 substrate protein remaining %” value [5] was “A (0% ≤ substrate protein remaining % ≤ 80%)” and the “Weel substrate protein remaining %” value [6] was “A (0% ≤ substrate protein remaining % ≤ 80%)”.
In the case of `O=C1CCC(N2C(=O)c3ccc(CN4CCC(c5ccc(Br)cc5)CC4)cc3C2=O)C(=O)N1` (stereo not drawn) [GT-06370, 5-((4-(4-bromophenyl)piperidin-1-yl)methyl)-2-(2,6-dioxopiperidin-3-yl)isoindoline-1,3-dione], the “CK1a substrate protein remaining %” value [1] is reported as “A (0% ≤ substrate protein remaining % ≤ 80%)”, the “IKZF3 substrate protein remaining %” value [2] is reported as “A (0% ≤ substrate protein remaining % ≤ 80%)” and the “GSPT1 substrate protein remaining %” value [3] is reported as “A (0% ≤ substrate protein remaining % ≤ 80%)”. The “IKZF2 substrate protein remaining %” value [4] was “A (0% ≤ substrate protein remaining % ≤ 80%)”, the “IKZF 1 substrate protein remaining %” value [5] was “B (80%< substrate protein remaining %≤ 100%)” and the “Weel substrate protein remaining %” value [6] was “A (0% ≤ substrate protein remaining % ≤ 80%)”.
With `O=C1CCC(N2C(=O)c3ccc(CN4CCC(c5ccccc5Cl)CC4)cc3C2=O)C(=O)N1` (stereo not drawn) [GT-06371, 5-((4-(2-chlorophenyl)piperidin-1-yl)methyl)-2-(2,6-dioxopiperidin-3-yl)isoindoline-1,3-dione] the “CK1a substrate protein remaining %” value [1] was “B (80%< substrate protein remaining %≤ 100%)”, the “IKZF3 substrate protein remaining %” value [2] was “B (80%< substrate protein remaining %≤ 100%)” and the “GSPT1 substrate protein remaining %” value [3] was “A (0% ≤ substrate protein remaining % ≤ 80%)”. For the same compound, the “IKZF2 substrate protein remaining %” value [4] was “B (80%< substrate protein remaining %≤ 100%)”, the “IKZF 1 substrate protein remaining %” value [5] was “A (0% ≤ substrate protein remaining % ≤ 80%)” and the “Weel substrate protein remaining %” value [6] was “B (80%< substrate protein remaining %≤ 100%)”.
`O=C1CCC(N2C(=O)c3ccc(CN4CCC(c5ccc(Cl)cc5)CC4)cc3C2=O)C(=O)N1` (stereo not drawn) [GT-06372, 5-((4-(4-chlorophenyl)piperidin-1-yl)methyl)-2-(2,6-dioxopiperidin-3-yl)isoindoline-1,3-dione] was tested, and the “CK1a substrate protein remaining %” value [1] was “B (80%< substrate protein remaining %≤ 100%)”, the “IKZF3 substrate protein remaining %” value [2] was “B (80%< substrate protein remaining %≤ 100%)” and the “GSPT1 substrate protein remaining %” value [3] was “A (0% ≤ substrate protein remaining % ≤ 80%)”. For the same compound, the “IKZF2 substrate protein remaining %” value [4] was “A (0% ≤ substrate protein remaining % ≤ 80%)”, the “IKZF 1 substrate protein remaining %” value [5] was “A (0% ≤ substrate protein remaining % ≤ 80%)” and the “Weel substrate protein remaining %” value [6] was “A (0% ≤ substrate protein remaining % ≤ 80%)”.
With `O=C1CCC(N2C(=O)c3ccc(CN4CCC(c5ccccc5F)CC4)cc3C2=O)C(=O)N1` (stereo not drawn) [GT-06373, 2-(2,6-dioxopiperidin-3-yl)-5-((4-(2-fluorophenyl)piperidin-1-yl)methyl)isoindoline-1,3-dione] the “CK1a substrate protein remaining %” value [1] was “B (80%< substrate protein remaining %≤ 100%)”, the “IKZF3 substrate protein remaining %” value [2] was “B (80%< substrate protein remaining %≤ 100%)” and the “GSPT1 substrate protein remaining %” value [3] was “A (0% ≤ substrate protein remaining % ≤ 80%)”. For the same compound, the “IKZF2 substrate protein remaining %” value [4] was “A (0% ≤ substrate protein remaining % ≤ 80%)”, the “IKZF 1 substrate protein remaining %” value [5] was “A (0% ≤ substrate protein remaining % ≤ 80%)” and the “Weel substrate protein remaining %” value [6] was “A (0% ≤ substrate protein remaining % ≤ 80%)”.
In the case of `O=C1CCC(N2C(=O)c3ccc(CN4CCC(c5ccc(F)cc5)CC4)cc3C2=O)C(=O)N1` (stereo not drawn) [GT-06374, 2-(2,6-dioxopiperidin-3-yl)-5-((4-(4-fluorophenyl)piperidin-1-yl)methyl)isoindoline-1,3-dione], the “CK1a substrate protein remaining %” value [1] is reported as “B (80%< substrate protein remaining %≤ 100%)”, the “IKZF3 substrate protein remaining %” value [2] is reported as “B (80%< substrate protein remaining %≤ 100%)” and the “GSPT1 substrate protein remaining %” value [3] is reported as “A (0% ≤ substrate protein remaining % ≤ 80%)”. For the same compound, the “IKZF2 substrate protein remaining %” value [4] was “A (0% ≤ substrate protein remaining % ≤ 80%)”, the “IKZF 1 substrate protein remaining %” value [5] was “A (0% ≤ substrate protein remaining % ≤ 80%)” and the “Weel substrate protein remaining %” value [6] was “A (0% ≤ substrate protein remaining % ≤ 80%)”.
In the case of `O=C1CCC(N2C(=O)c3ccc(CN4CCC(c5ccccc5C(F)(F)F)CC4)cc3C2=O)C(=O)N1` (stereo not drawn) [GT-06375, 2-(2,6-dioxopiperidin-3-yl)-5-((4-(2-(trifluoromethyl)phenyl)piperidin-1-yl)methyl)isoindoline-1,3-dione], the “CK1a substrate protein remaining %” value [1] is reported as “B (80%< substrate protein remaining %≤ 100%)”, the “IKZF3 substrate protein remaining %” value [2] is reported as “B (80%< substrate protein remaining %≤ 100%)” and the “GSPT1 substrate protein remaining %” value [3] is reported as “A (0% ≤ substrate protein remaining % ≤ 80%)”. The “IKZF2 substrate protein remaining %” value [4] was “A (0% ≤ substrate protein remaining % ≤ 80%)”, the “IKZF 1 substrate protein remaining %” value [5] was “A (0% ≤ substrate protein remaining % ≤ 80%)” and the “Weel substrate protein remaining %” value [6] was “A (0% ≤ substrate protein remaining % ≤ 80%)”.
